Assay results reported in publication PMC6501426 (Clinical Epigenetics, 2019).

Experiments:
[1] = system: E-cadherin mRNA in PC-3 cells; assay: qPCR of E-cadherin in PC-3; format: cell-based, human; conditions: MC3353 24 h; 5-AZA, DAC 5 days, effect from 1 to 5 μM
Text: (§1) RNAs were extracted by ReliaPrep™ RNA Tissue Miniprep (Promega, Madison, WI, USA) and reverse transcribed with PrimeScript RT Master Mix (Takara, Kusatsu, Shiga, Japan). cDNAs were amplified by a qPCR reaction using GoTaq qPCR Master Mix (Promega) and analyzed with the oligonucleotide pairs specific for the target genes. Relative amounts, determined with the 2^(−ΔCt) method, were normalized with respect to the human housekeeping gene L32. The primers used are as follows: L32 (forward: 5′-[…]-3′, reverse: 5′-[…]-3′), E-cadherin (forward: 5′-[…]-3′, reverse: 5′-[…]-3′), and MMP2 (forward: 5′-[…]-3′, reverse: 5′-[…]-3′).
(§2) Prompted by these findings, we investigated the ability of MC3353 to modulate EMT pathway, using 5-AZA and DAC as reference drugs. […] The levels of mRNA transcripts of E-cadherin and matrix metalloproteinase-2 (MMP2) were determined. E-cadherin is involved in the maintenance of the epithelial identity and in the control of tumor invasiveness, whereas MMP2, through degradation of type IV collagen, the most abundant component of the basement membrane, controls an essential step for metastatic progression of most cancers as well as for induction of angiogenesis.

MMP2 mRNA in PC-3 cells = assay: qPCR of MMP2 in PC-3; format: cell-based, human; conditions: MC3353 0.1 and 1 μM 24 h; 5-AZA, DAC 5 days, also at 0.1 to 1 μM
Text: as §1, §2

[2] = system: E-cadherin mRNA in HCT116 cells; assay: qPCR of E-cadherin in HCT116; format: cell-based, human; conditions: MC3353 0.1 μM 24 h; 5-AZA, DAC every 2 days for 5 days at 0.1, 1, 5 μM
Text: as §1, §2

Saos-2 = assay: Osteosarcoma cell growth inhibition (trypan blue count); format: cell-based; conditions: Homo sapiens, 96 h of treatment, read-out: IC50 ± SD, cellular viability, Saos-2
Text: (§3) The patient-derived human OS cell lines Saos-2, U-2OS, and MG-63 were obtained from ATCC (1992). The patient-derived OS cell lines IOR/OS9, IOR/OS20, and IOR/SARG were established and previously characterized at the Laboratory of Experimental Oncology of Rizzoli Orthopedic Institute. Cell lines were profiled for DNA copy number changes and DNA methylation status at approximately 27,000 CpG sites. The cell line PDX-OS#1-C4 was obtained from OS patient-derived xenograft (PDX) after 4 passages in the animal. All cell lines were tested for mycoplasma contamination (Mycoalert Mycoplasma Detection Kit, Lonza, Verviers, Belgium) before use and authenticated by short-tandem repeat polymerase chain reaction (STR PCR) analysis (last control December 2017) using PowerPlex ESX fast System kit (Promega, Madison, WI, USA). The following loci were verified: AMEL, D3S1358, TH01, D21S11, D18S51, D10S1248, D1S1656, D2S1338, D16S539, D22S1054, VWA, D8S1179, FGA, D2S441, D12S391, D19S433, and SE33. All cell lines were immediately amplified to constitute liquid nitrogen stocks and were never passaged for more than 1 month upon thawing. Cells were maintained in Iscove’s modified Dulbecco’s medium (IMDM) supplemented with 10% heat-inactivated FBS (Lonza, Verviers, Belgium), penicillin (20 U/mL), and streptomycin (100 μg/mL) (Sigma-Aldrich, Milan, Italy) in 37 °C humidified at 5% CO2.
(§4) To perform osteosarcoma cell growth inhibition experiments, 2 × 10^5 cells/well were plated, and MC3353 (0.1–30 μM) or DAC (0.5 μM) was added after 24 h. Cells were exposed for up to 96 h before being counted by Trypan blue vital cell count (Sigma-Aldrich, Milan, Italy). In parallel, the cells were treated with DMSO-containing medium as a control. The highest final concentration of DMSO in the medium was < 0.005%, and DMSO had no effect on cell growth.
(§5) IC50 values of compounds against cellular viability were determined by using nonlinear regression fitting curves with GraphPad Prism 8 or CalcuSyn software The t test used for statistical analyses was performed with GraphPad Prism 8. All the tests were one-tailed, and a p value < 0.05 was considered statistically significant.

PDX-OS#1-C4 = assay: as above; format: cell-based; conditions: Homo sapiens; 96 h of treatment; read-out: IC50 ± SD, cellular viability, PDX-OS#1-C4
Text: as §3, §4, §5

IOR/OS9 = assay: as above; format: cell-based; conditions: Homo sapiens; 96 h of treatment; read-out: IC50 ± SD, cellular viability, IOR/OS9
Text: as §3, §4, §5

U-2OS = assay: as above; format: cell-based; conditions: Homo sapiens, U2OS; 96 h of treatment; read-out: IC50 ± SD, cellular viability, U-2OS
Text: as §3, §4, §5

IOR/OS20 = assay: as above; format: cell-based; conditions: Homo sapiens; 96 h of treatment; read-out: IC50 ± SD, cellular viability, IOR/OS20
Text: as §3, §4, §5

IOR/SARG = assay: as above; format: cell-based; conditions: Homo sapiens; 96 h of treatment; read-out: IC50 ± SD, cellular viability, IOR/SARG
Text: as §3, §4, §5

MG63 = assay: as above; format: cell-based; conditions: Homo sapiens, MG-63; 96 h of treatment; read-out: IC50 ± SD, cellular viability, MG63
Text: as §3, §4, §5

[3] = system: double DNMT knockout (DKO) HCT116 cells; assay: MTT proliferation assay DKO HCT116; format: cell-based, human; conditions: 24 and 48 h; MC3353 at 0.5 μM after 48 h; DAC, 5-AZA up to highest dose
Description: DKO HCT116 (ATCC, VA, USA) cells were propagated in Dulbecco’s modified Eagle medium (DMEM) (Euroclone, Milan, Italy) with 10% fetal bovine serum (FBS; Euroclone, Milan, Italy), 2 mM L-glutamine (Euroclone, Milan, Italy) and antibiotics (100 U/mL penicillin, 100 µg/mL streptomycin) (Euroclone, Milan, Italy).
The MTT [3-(4,5-dimethylthiazol-2-yl)-2,5-diphenyltetrazolium bromide] (Sigma-Aldrich, Milan, Italy) assay was used to determine the proliferation of HCT116 clone and DKO HCT116 cells after treatment with MC3353, 5-AZA, and DAC. 5 × 10^4 cells/well for both cell lines were plated in 24-well plate and treated, in duplicate, with compounds at several concentrations for 24 and 48 h of induction. After treatments, MTT solution was added for 3 h at 0.5 mg/mL, the purple formazan crystals were dissolved in DMSO (Sigma-Aldrich, Milan, Italy), and the absorbance was read at a wavelength of 570 nm with reader TECAN M-200.

[4] = system: MMP2 mRNA in HCT116 cells; assay: qPCR of MMP2 in HCT116; format: cell-based, human; conditions: MC3353 0.1 and 1 μM 24 h; 5-AZA, DAC 5 days, also at 0.1 to 1 μM
Text: as §1, §2

| SMILES | E-cadherin mRNA expression, PC-3 [1] | MMP2 mRNA expression, PC-3 (MMP2 mRNA in PC-3 cells) | E-cadherin mRNA expression, HCT116 [2] | IC50 (Saos-2) [nM] | IC50 (PDX-OS#1-C4) [nM] | IC50 (IOR/OS9) [nM] | IC50 (U-2OS) [nM] | IC50 (IOR/OS20) [nM] | IC50 (IOR/SARG) [nM] | IC50 (MG63) [nM] | effect on DKO HCT116 proliferation (MTT) [3] | MMP2 mRNA expression, HCT116 [4] |
| --- | --- | --- | --- | --- | --- | --- | --- | --- | --- | --- | --- | --- |
| O=C(Nc1ccc(NC(=O)c2ccc(Nc3ccnc4ccccc34)cc2)cc1)OCc1ccccc1 [MC3353, Benzyl (4-(4-(quinolin-4-ylamino)benzamido)phenyl)carbamate] | this effect was observed only at 1 μM dose | strongly downregulated | induced E-cadherin mRNA expression transcripts | 1100 ± 300 | 2000 ± 100 | 2000 ± 100 | 1400 ± 100 | 1500 ± 100 | 1500 ± 100 | 2400 ± 1700 | markedly less efficient to impair cell proliferation | strongly downregulated |
| Nc1ncn([C@H]2C[C@H](O)[C@@H](CO)O2)c(=O)n1 [DAC, 5-aza-2′-deoxycytidine, reference compound] | able to induce E-cadherin expression | increased MMP2 level | able to induce E-cadherin expression | 1000 ± 900 | 700 ± 600 | 5700 ± 3400 | 1100 ± 900 | 9200 ± 2200 | 5400 ± 1000 | 200 ± 200 | No evidence of cytotoxicity | increased MMP2 level |
